According to EP0631503B1, “USE OF VASOACTIVE INTESTINAL PEPTIDE (VIP) TO INDUCE TEMPORARY PARALYSIS OF THE GASTROINTESTINAL TRACT” (KORMAN, Louis Y., priority 1991, dated 2001):
Read-outs that look alike come from different tables or passages of the source.

What was measured:
[1] = tested on: gastroduodenal motility; details: reduction in gastroduodenal motility, dose-dependent; cited from earlier work
[2] = in vivo; cited from earlier work
[3] = tested on: contractions in the antrum; details: doses as high as 2 mg; cited from earlier work
[4] = tested on: antroduodenal activity; details: 1 mg i.v. followed by 2 mg IV over 2 hours; cited from earlier work
[5] = dose dependent side effects; cited from earlier work
[6] = tested on: opossum duodenum; details: cited from earlier work
[7] = Protocol: During the period of observation, vital signs (blood pressure and pulse) and symptoms were continuously recorded. The protocol was such that if the blood pressure dropped by more than 20 mm Hg systolic or diastolic or the pulse increased by more than 30 beats per minute for 2 minutes, intravenous saline was to be administered and the study terminated.
[8] = first patient, initial dose of 5 ng VIP per kg

For glucagon, the minimally effective dose [1] is listed as 0.5 mg, the colonoscopic evaluation [2] is listed as “does not facilitate” and the “contractions in the antrum” value [3] is listed as “does not reduce contractions”. For the same compound, the “cycle length and time between contractile activity in the duodenum” value [4] was “significantly increased”, the mean pressure period [4] was “decreased” and the “dose at which nausea and vomiting can appear” value [5] was 1 mg. The effect on duodenum [6] was “stimulated relaxation”.
For `CC[C@H](C)[C@H](NC(=O)[C@H](CO)NC(=O)[C@H](CC(N)=O)NC(=O)[C@H](CC(C)C)NC(=O)[C@H](Cc1ccc(O)cc1)NC(=O)[C@H](CCCCN)NC(=O)[C@H](CCCCN)NC(=O)[C@@H](NC(=O)[C@H](C)NC(=O)[C@H](CCSC)NC(=O)[C@H](CCC(N)=O)NC(=O)[C@H](CCCCN)NC(=O)[C@H](CCCN=C(N)N)NC(=O)[C@H](CC(C)C)NC(=O)[C@H](CCCN=C(N)N)NC(=O)[C@@H](NC(=O)[C@H](Cc1ccc(O)cc1)NC(=O)[C@H](CC(N)=O)NC(=O)[C@H](CC(=O)O)NC(=O)[C@@H](NC(=O)[C@H](Cc1ccccc1)NC(=O)[C@@H](NC(=O)[C@H](C)NC(=O)[C@H](CC(=O)O)NC(=O)[C@H](CO)NC(=O)[C@@H](N)Cc1c[nH]cn1)C(C)C)[C@@H](C)O)[C@@H](C)O)C(C)C)C(=O)N[C@@H](CC(C)C)C(=O)N[C@@H](CC(N)=O)C(N)=O` [VIP, vasoactive intestinal peptide], the “effects on blood pressure and pulse” value ([7]; first patient, higher dose level (20 ng/kg)) was “not seen”, the pulse [7, 8] was “increase” and the systolic pressure [7, 8] was “slight decrease”. The blood pressure ([7]; second patient, 5 and 20 ng/kg of bodyweight) was “no significant effect”, the “blood pressure or pulse” value ([7]; second patient, any of the dosages tested) was “no significant change” and the “blood pressure or pulse” value ([7]; third patient, any dose of VIP administered) was “no significant change”. For the same compound, the “adverse reactions such as nausea or vomiting” value ([7]; three patients studied) was “None of the three patients studied experienced any adverse reactions”.
